Test results from patent publication US20260232767A1, “INTERLEUKIN-23 RECEPTOR ANTAGONIST PEPTIDES FOR USE IN THE TREATMENT OF PSORIASIS” (Janssen Pharmaceutica NV, priority 2023, published 2026).

System: subjects with moderate-to-severe plaque psoriasis
Test: Safety, adverse events, Example 2 through Week 56
Format: in vivo, human
Details: Combined; through Week 56
Source text: The LTE safety analysis was based on randomized participants in Example who entered the present long-term extension study and received at least one dose of study intervention (including a partial dose) during the study period.

Compound: CC(=O)NCCCC[C@@H]1NC(=O)[C@H](Cc2c[nH]c3c(C)cccc23)NC(=O)[C@H]([C@@H](C)O)NC(=O)[C@H](CC(N)=O)NC(=O)[C@@H](NC(C)=O)C(C)(C)SSC(C)(C)[C@@H](C(=O)N[C@@H](Cc2ccc(OCCN)cc2)C(=O)N[C@@H](Cc2ccc3ccccc3c2)C(=O)NC2(C(=O)N[C@@H](CCC(=O)O)C(=O)N[C@@H](CC(N)=O)C(=O)N[C@@H](Cc3cccnc3)C(=O)N(C)CC(N)=O)CCOCC2)NC1=O [IL-23 receptor antagonist peptide, Ac-[Pen]*-N-T-[W(7-Me)]-[Lys(Ac)]-[Pen]*-Phe[4-(2-aminoethoxy)]-[2-Nal]-[THP]-E-N-[3-Pal]-Sarc-NH2 (*[Pen]-[Pen]* formdisulfidebond)]
- Coronary artery disease: % of subjects: (0.4%)
- Coronary artery disease: number of subjects: 1
- Cough: % of subjects: (3.2%)
- Cough: number of subjects: 8
- Decreased appetite: % of subjects: (0.4%)
- Decreased appetite: number of subjects: 1
- Depression: % of subjects: (0.8%)
- Depression: number of subjects: 2
- Dermal cyst: % of subjects: (0.4%)
- Dermal cyst: number of subjects: 1
- Dermatitis acneiform: % of subjects: (0.4%)
- Dermatitis acneiform: number of subjects: 1
- Dermatitis contact: % of subjects: (1.6%)
- Dermatitis contact: number of subjects: 4
- Diabetes mellitus: % of subjects: (0.8%)
- Diabetes mellitus: number of subjects: 2
- Diffuse alopecia: % of subjects: (0.4%)
- Diffuse alopecia: number of subjects: 1
- Dysuria: % of subjects: (0.4%)
- Dysuria: number of subjects: 1
- Ear and labyrinth disorders: % of subjects: (1.2%)
- Ear and labyrinth disorders: number of subjects: 3
- Endocrine disorders: % of subjects: (0.4%)
- Endocrine disorders: number of subjects: 1
- Eye disorders: % of subjects: (1.2%)
- Eye disorders: number of subjects: 3
- Eyelid skin dryness: % of subjects: (0.4%)
- Eyelid skin dryness: number of subjects: 1
- Fatigue: % of subjects: (1.6%)
- Fatigue: number of subjects: 4
- General disorders and administration site conditions: % of subjects: (5.3%)
- General disorders and administration site conditions: number of subjects: 13
- Goiter: % of subjects: (0.4%)
- Goiter: number of subjects: 1
- Haemochromatosis: % of subjects: (0.4%)
- Haemochromatosis: number of subjects: 1
- Hand dermatitis: % of subjects: (0.4%)
- Hand dermatitis: number of subjects: 1
- Hematuria: % of subjects: (0.8%)
- Hematuria: number of subjects: 2
- Hepatobiliary disorders: % of subjects: (1.2%)
- Hepatobiliary disorders: number of subjects: 3
- Hypercholesterolemia: % of subjects: (0.4%)
- Hypercholesterolemia: number of subjects: 1
- Hyperglycemia: % of subjects: (1.6%)
- Hyperglycemia: number of subjects: 4
- Hyperlipidemia: % of subjects: (0.4%)
- Hyperlipidemia: number of subjects: 1
- Hypertension: % of subjects: (2.8%)
- Hypertension: number of subjects: 7
- Hypertransaminasemia: % of subjects: (0.4%)
- Hypertransaminasemia: number of subjects: 1
- Hypertriglyceridemia: % of subjects: (0.4%)
- Hypertriglyceridemia: number of subjects: 1
- Hypoacusis: % of subjects: (0.4%)
- Hypoacusis: number of subjects: 1
- Immune system disorders: % of subjects: (0.8%)
- Immune system disorders: number of subjects: 2
- Influenza like illness: % of subjects: (0.4%)
- Influenza like illness: number of subjects: 1
- Insomnia: % of subjects: (0.8%)
- Insomnia: number of subjects: 2
- Intertrigo: % of subjects: (0.4%)
- Intertrigo: number of subjects: 1
- Ketonuria: % of subjects: (0.4%)
- Ketonuria: number of subjects: 1
- Leukocyturia: % of subjects: (0.4%)
- Leukocyturia: number of subjects: 1
- Leukopenia: % of subjects: (0.4%)
- Leukopenia: number of subjects: 1
- Libido decreased: % of subjects: (0.4%)
- Libido decreased: number of subjects: 1
- Liver disorder: number of subjects: 0
- Lymphopenia: % of subjects: (0.8%)
- Lymphopenia: number of subjects: 2
- Menopause: % of subjects: (0.4%)
- Menopause: number of subjects: 1
- Metabolism and nutrition disorders: % of subjects: (4.5%)
- Metabolism and nutrition disorders: number of subjects: 11
- Neoplasms benign, malignant and unspecified (incl cysts and polyps): % of subjects: (2.4%)
- Neoplasms benign, malignant and unspecified (incl cysts and polyps): number of subjects: 6
- Nephrolithiasis: % of subjects: (0.4%)
- Nephrolithiasis: number of subjects: 1
- Neutropenia: % of subjects: (0.8%)
- Neutropenia: number of subjects: 2
- Night sweats: % of subjects: (0.4%)
- Night sweats: number of subjects: 1
- Non-cardiac chest pain: % of subjects: (0.4%)
- Non-cardiac chest pain: number of subjects: 1
- Ocular cyst: % of subjects: (0.4%)
- Ocular cyst: number of subjects: 1
- Oedema peripheral: % of subjects: (1.6%)
- Oedema peripheral: number of subjects: 4
- Oropharyngeal pain: % of subjects: (0.8%)
- Oropharyngeal pain: number of subjects: 2
- Procedural pain: % of subjects: (0.4%)
- Procedural pain: number of subjects: 1
- Productive cough: % of subjects: (0.4%)
- Productive cough: number of subjects: 1
- Proteinuria: % of subjects: (0.4%)
- Proteinuria: number of subjects: 1
- Pruritus: % of subjects: (0.8%)
- Pruritus: number of subjects: 2
- Psoriasis: % of subjects: (1.2%)
- Psoriasis: number of subjects: 3
- Psychiatric disorders: % of subjects: (2.0%)
- Psychiatric disorders: number of subjects: 5
- Pyrexia: % of subjects: (0.8%)
- Pyrexia: number of subjects: 2
- Rash pruritic: number of subjects: 0
- Renal and urinary disorders: % of subjects: (3.2%)
- Renal and urinary disorders: number of subjects: 8
- Renal mass: % of subjects: (0.4%)
- Renal mass: number of subjects: 1
- Respiratory, thoracic and mediastinal disorders: % of subjects: (5.3%)
- Respiratory, thoracic and mediastinal disorders: number of subjects: 13
- Retinal vein occlusion: % of subjects: (0.4%)
- Retinal vein occlusion: number of subjects: 1
- Rhinorrhoea: % of subjects: (0.4%)
- Rhinorrhoea: number of subjects: 1
- Seasonal allergy: % of subjects: (0.8%)
